Data published in patent US20120207734A1 (priority 2011, published 2012).

Test system: DU-145 cells
Type: cell-based, human

Which results are given for `C=C1[C@@H](C)[C@H]2[C@H](Cc3ccccc3)NC(=O)[C@]23[C@H](OC(C)=O)/C=C/[C@@](C)(O)C(=O)[C@@H](C)C/C=C/[C@H]3[C@@H]1O` [Cytochalasin-D]?
Effect on cell migration: did not migrate; Relative Wound Density at 24 Hours, Mean: 3.3 ± 0.2; Relative Wound Density at 24 Hours, Percent Relative to Media: 4%
